Experimental data from patent US9162975B2, “Phenyl carbamate compounds for use in alleviating or treating pain” (Bio-Pharm Solutions Co., Ltd., priority 2011, dated 2015).

How the values were obtained:
[1] = test system: mice; assay: Measurement of neurotoxicity (rotarod); type: in vivo; conditions: protective index, ratio of TD50 to ED50 in MES
Experimental: The measurement of neurotoxicity of the test compounds was conducted by the method of Dunham and Miya [Dunham, N. W. and Miya, T. S. 1957. A note on a simple apparatus for detecting neurological deficit in rats and mice. J. Am. Pharm. Assoc. (Baltimore) 46: 208-209]. In the method, motor abilities of the test animals can be determined by observing whether the test animals can walk without falling from a rotator, thereby determining the value of neurotoxicity of each compound. […] They were pre-trained on the rotarod (Rotarod; Columbus instrument, rota-max, USA) at 6 rpm for 5 min 24 hr prior to the test. The peak time was determined by administration test material's random dose for 0.5, 1, 2, 4 hour. […] The ratio of TD50 to ED50 (TD50/ED50) is called as a protective index, and useful as a parameter for comparison of pharmaceutical efficacy and neurotoxicity.

[2] = test system: ICR mice; assay: Hot-plate test; type: in vivo; conditions: withdrawal latency relative to vehicle control, 150 mg/kg po, hot plate 55±1° C.
Experimental: To examine the pain relief effect of the phenyl carbamate compounds, a hot-plate test was conducted in general pain animal model referring to Current Protocols in Neuroscience; Behavioral Neuroscience Unit 8.9.
(§1) ICR mice (male, 30-35 g; Orient Bio, Korea) were habituated before test in test room for 1 hour Animals were fasted 2 hr before administration of compounds. Each of Compound 1, 2, 3, 4, 5, 63, 65, and 67 was orally administered at the dose of 150 mg/kg, 10 ul/g, bw (n=7˜10/group). All compounds were dissolved in a vehicle of 30% (v/v) PEG 400 or 20% (v/v) Tween 80. The control group was treated the vehicle without compounds.
0.5 hr after the administration of compounds, the mice were put on a hot plate pre-heated to 55±1° C. (Hu, X. et al, 2008), and then, measured as the withdrawal latency (cut-off time: 30 sec) time until the point when each mouse was taking off a paw from the plate, shaking, licking a paw or hind leg, or jumping from the plate.

[3] = test system: ICR mice; assay: Writhing test (acetic acid); type: in vivo; conditions: number of writhes relative to vehicle control, 20 mg/kg po, 0.6% acetic acid
Experimental: To examine the pain relief effect of the phenyl carbamate compounds, a writhing test was conducted in general pain animal model referring to Fischer, L. G. et al. (2008).
as §1, with “24-28” for “30-35”, “hr,” for “hr”, “20” for “150”, “(n=3˜5/group).” for “(n=7˜10/group).”
One hour after the administration of Compounds, 0.6% acetic acid at the dose of 10 ul/g, bw was injected into the mice. Animals were habituated in the cage for 5 min 5 min after habituation, the number of writhes (abdominal constriction) for 15 min was counted referring to Korzeniewska-Rybicka, I. et al. (1998) and compared with that of a control.

[4] = test system: SNL model in rats; assay: Antiallodynic activity on Chung model (SNL, spinal nerve ligation), von Frey; type: in vivo, Sprague-Dawley rats; conditions: paw withdrawal threshold relative to sham, 50 mg/kg p.o.
Experimental: Male Sprague-Dawley rats (200-220 g, Orient Bio, Korea) were habituated for 1 week before the experiment and allowed free access to food and water throughout the experimentation. Room temperature and humidity were maintained at 24±2° C. and 50±10%, respectively. Neuropathic surgery (SNL, Spinal nerve ligation) model was done as described in Kim and Chung (1992). Briefly, animal under gaseous anesthesia with isoflurane a 4:4 flow ratio of NO2. The left lumber spinal nerve L5 and L6 were isolated and tightly ligated with 4˜0 silk thread. The wound was treated with a gentamicin antibiotics solution (4 mg/kg, 4 ul/g, bw), and the wound muscle was closed with cat cut chrome 4/0 thread and skin was closed dafilon 4/0 tread. Sham controls were prepared in the same manner as the spinal nerves were exposed, but no ligated L5 and L6 nerves. But, vehicle controls were identical to SNL model, except for administration of vehicles.
Tactile sensitivity (Mechanical allodynia) was evaluated using von Frey monofilaments before and after treatment and animals were used withdrawal threshold value was less than 4 g. […] The tactile sensitivity for ipsilateral hind paw was measured using the up-and-down method (Dixon, 1980) with seven von Frey monofilaments (0.4, 1, 2, 4, 6, 8, and 15 g) to 3 trials. […] The 50% paw withdrawal threshold for each paw was calculated using the following formula: [Xth] log=[vFr] log+ky where [vFr] is the force of the last von Frey used, k=0.2249 which is the average interval (in log units) between the von Frey monofilaments, and y is a value that depends upon the pattern of withdrawal responses (Dixon, 1980).
All animals were fasted 18 h before the administration of the compounds. Antiallodynic effect of compounds of Examples 1, 63 and 65 were evaluated at the dose of 5, 10 and 30 mg/kg (n=5˜6), orally administrated in a volume of 5 ul/g, bw in a vehicle of 30% (v/v) PEG 400 (Examples 1 and 63) or 20% (v/v) Tween 80 (Example 65). […]

Row | Structure (SMILES) | PI(TD50/ED50 in MES) [1] | Hot-plate test (150 mg/kg, 0.5 h, po) % Control [2] [%] | Writhing test (20 mg/kg, 1 h, po) % Control [3] [%] | SNL (50 mg/kg, 1 h, p.o.) % Control [4] [%]
1 | C[C@H](OC(N)=O)[C@H](O)c1ccccc1Cl [Example 5, 1-(2-chlorophenyl)-(R)-1-hydroxypropyl-(S)-2-carbamate] | 3.3 | 145.5 | 66.6 | 
2 | C[C@@H](OC(N)=O)[C@H](O)c1ccccc1Cl [Example 2, 1-(2-chlorophenyl)-(R)-1-hydroxypropyl-(R)-2-carbamate] | 7.3 | 129.8 | 73.8 | 
3 | CC(OC(N)=O)C(O)c1ccccc1Cl (racemic) [Example 3, 1-(2-chlorophenyl)-1-hydroxypropyl-2-carbamate] | 12.0 | 120.5 | 84.8 | 
4 | C[C@H](OC(N)=O)[C@@H](O)c1c(Cl)cccc1Cl [Example 37, 1-(2,6-dichlorophenyl)-(S)-1-hydroxypropyl-(S)-2-carbamate] | 5.1 |  |  | 
5 | C[C@H](OC(N)=O)[C@@H](O)c1ccccc1I [Example 65, 1-(2-iodophenyl)-(S)-1-hydroxypropyl-(S)-2-carbamate] |  | 104.1 | 60.6 | 76.8
6 | C[C@H](OC(N)=O)[C@@H](O)c1ccccc1F [Example 63, 1-(2-fluorophenyl)-(S)-1-hydroxypropyl-(S)-2-carbamate] |  | 183.1 | 63.9 | 55.4
7 | C[C@@H](OC(N)=O)[C@@H](O)c1ccccc1Cl [Example 4, 1-(2-chlorophenyl)-(S)-1-hydroxypropyl-(R)-2-carbamate] |  | 108.2 | 75.5 | 
8 | CC[C@H](OC(N)=O)[C@@H](O)c1ccccc1I [Example 67, 1-(2-iodophenyl)-(S)-1-hydroxybutyl-(S)-2-carbamate] |  | 131.4 | 68.3 | 
